Measurements from patent US8765728B2, “[1,5]-diazocin derivatives” (MelliTech, priority 2009, dated 2014).

System: Min6 cell
Experiment: Insulin secretion response of beta cell line to formula I compounds (insulin ELISA)
Assay type: cell-based
Settings: rank according to % increase versus control at most effective dose
How it was run: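 After compound or vehicle exposure, Min6 cells were held 2 h in glucose-free medium and preincubated 30 min at 37° C in glucose-free KRBH (pH 7.4, 0.1% BSA). They were then incubated 30 min at 37° C in KRBH with varying glucose. Secreted insulin and acid-ethanol-extracted intracellular insulin were measured by ELISA.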

SMILES	Insulin secretion (Min6 cell) Range 1 to 5
COc1ccc2c(c1OC(F)F)CN(C1CC1)C(=O)CCN2C(=O)c1cnccn1 [Compound 129, 5-cyclopropyl-7-(difluoromethoxy)-8-methoxy-1-(pyrazine-2-carbonyl)-2,3,5,6-tetrahydrobenzo[b][1,5]diazocin-4(1H)-one]	2 (2: 110-120% of control)
O=C(c1cnccn1)N1CCC(=O)N(C2CC2)Cc2cc(F)ccc21 [Compound 130, 5-cyclopropyl-8-fluoro-1-(pyrazine-2-carbonyl)-2,3,5,6-tetrahydrobenzo[b][1,5]diazocin-4(1H)-one]	1 (1: 90-110% of control)
O=C(c1ccccn1)N1CCC(=O)N(C2CC2)Cc2cc(Cl)ccc21 [Compound 131, 8-chloro-5-cyclopropyl-1-picolinoyl-2,3,5,6-tetrahydrobenzo[b][1,5]diazocin-4(1H)-one]	1 (1: 90-110% of control)
O=C(c1ccccn1)N1CCC(=O)N(C2CC2)Cc2c1ccc1c2OCCO1 [Compound 132, 11-cyclopropyl-7-picolinoyl-2,3,8,9,11,12-hexahydro-[1,4]dioxino[2′,3′:3,4]benzo[1,2-b][1,5]diazocin-10(7H)-one]	1 (1: 90-110% of control)
O=C(c1cnccn1)N1CCC(=O)N(C2CC2)Cc2cc(Cl)ccc21 [Compound 133, 8-chloro-5-cyclopropyl-1-(pyrazine-2-carbonyl)-2,3,5,6-tetrahydrobenzo[b][1,5]diazocin-4(1H)-one]	2 (2: 110-120% of control)
COc1ccc2c(c1OC(F)F)CN(C1CC1)C(=O)CCN2C[C@@H](O)COc1ccc(Cl)cc1 [Compound 134, (R)-1-(3-(4-chlorophenoxy)-2-hydroxypropyl)-5-cyclopropyl-7-(difluoromethoxy)-8-methoxy-2,3,5,6-tetrahydrobenzo[b][1,5]diazocin-4(1H)-one]	1 (1: 90-110% of control)
O=C1CCN(C[C@@H](O)COc2ccc(Cl)cc2)c2ccc(Cl)cc2CN1C1CC1 [Compound 135, (R)-8-chloro-1-(3-(4-chlorophenoxy)-2-hydroxypropyl)-5-cyclopropyl-2,3,5,6-tetrahydrobenzo[b][1,5]diazocin-4(1H)-one]	1 (1: 90-110% of control)
CS(=O)(=O)c1ccc(OC[C@H](O)CN2CCC(=O)N(C3CC3)Cc3cc(F)ccc32)cc1 [Compound 136, (R)-5-cyclopropyl-8-fluoro-1-(2-hydroxy-3-(4-(methylsulfonyl)phenoxy)propyl)-2,3,5,6-tetrahydrobenzo[b][1,5]diazocin-4(1H)-one]	1 (1: 90-110% of control)
CS(=O)(=O)c1ccc(OC[C@H](O)CN2CCC(=O)N(C3CC3)Cc3cc(Cl)ccc32)cc1 [Compound 137, (R)-8-chloro-5-cyclopropyl-1-(2-hydroxy-3-(4-(methylsulfonyl)phenoxy)propyl)-2,3,5,6-tetrahydrobenzo[b][1,5]diazocin-4(1H)-one]	2 (2: 110-120% of control)
Cc1cc(C(=O)N2CCC(=O)N(C3CC3)Cc3c2ccc2c3OCCO2)on1 [Compound 138, 11-cyclopropyl-7-(3-methylisoxazole-5-carbonyl)-2,3,8,9,11,12-hexahydro-[1,4]dioxino[2′,3′:3,4]benzo[1,2-b][1,5]diazocin-10(7H)-one]	1 (1: 90-110% of control)
Cc1cc(C(=O)N2CCC(=O)N(C3CC3)Cc3cc(Cl)ccc32)on1 [Compound 139, 8-chloro-5-cyclopropyl-1-(3-methylisoxazole-5-carbonyl)-2,3,5,6-tetrahydrobenzo[b][1,5]diazocin-4(1H)-one]	1 (1: 90-110% of control)
COc1ccc2c(c1OC(F)F)CN(C1CC1)C(=O)CCN2C(=O)c1cc(C)no1 [Compound 140, 5-cyclopropyl-7-(difluoromethoxy)-8-methoxy-1-(3-methylisoxazole-5-carbonyl)-2,3,5,6-tetrahydrobenzo[b][1,5]diazocin-4(1H)-one]	3 (3: 120-140% of control)
COc1ccc2c(c1)CN(C1CC1)C(=O)CCN2C(=O)c1cc(C)no1 [Compound 141, 5-cyclopropyl-8-methoxy-1-(3-methylisoxazole-5-carbonyl)-2,3,5,6-tetrahydrobenzo[b][1,5]diazocin-4(1H)-one]	4 (4: 140-170% of control)
Cc1cc(C(=O)N2CCC(=O)N(C3CC3)Cc3cc(OC(F)F)ccc32)on1 [Compound 142, 5-cyclopropyl-8-(difluoromethoxy)-1-(3-methylisoxazole-5-carbonyl)-2,3,5,6-tetrahydrobenzo[b][1,5]diazocin-4(1H)-one]	4 (4: 140-170% of control)
O=C(CN1CCC(=O)N(C2CC2)Cc2cc(Cl)ccc21)c1ccc(OC(F)F)cc1 [Compound 143, 8-chloro-5-cyclopropyl-1-(2-(4-(difluoromethoxy)phenyl)-2-oxoethyl)-2,3,5,6-tetrahydrobenzo[b][1,5]diazocin-4(1H)-one]	2 (2: 110-120% of control)
O=C(CN1CCC(=O)N(C2CC2)Cc2c1ccc1c2OCCO1)c1ccc(OC(F)F)cc1 [Compound 144, 11-cyclopropyl-7-(2-(4-(difluoromethoxy)phenyl)-2-oxoethyl)-2,3,8,9,11,12-hexahydro-[1,4]dioxino[2′,3′:3,4]benzo[1,2-b][1,5]diazocin-10(7H)-one]	1 (1: 90-110% of control)
OC(CN1CCCN(C2CC2)Cc2cc(F)ccc21)c1ccc(Cl)cc1 (stereo not drawn) [Compound 145, 1-(4-chlorophenyl)-2-(5-cyclopropyl-8-fluoro-3,4,5,6-tetrahydrobenzo[b][1,5]diazocin-1(2H)-yl)ethanol]	3 (3: 120-140% of control)
C[C@H](O)CN1CCC(=O)N(C2CC2)Cc2c1ccc1c2OCCO1 [Compound 146, (S)-11-cyclopropyl-7-(2-hydroxypropyl)-2,3,8,9,11,12-hexahydro-[1,4]dioxino[2′,3′:3,4]benzo[1,2-b][1,5]diazocin-10(7H)-one]	5 (5: >170% of control)
C[C@H](O)CN1CCC(=O)N(C2CC2)Cc2cc(Cl)ccc21 [Compound 147, (S)-8-chloro-5-cyclopropyl-1-(2-hydroxypropyl)-2,3,5,6-tetrahydrobenzo[b][1,5]diazocin-4(1H)-one]	2 (2: 110-120% of control)
O=C1CCN(CC(O)c2ccc(OC(F)F)cc2)c2ccc(Cl)cc2CN1C1CC1 (stereo not drawn) [Compound 148, 8-chloro-5-cyclopropyl-1-(2-(4-(difluoromethoxy)phenyl)-2-hydroxyethyl)-2,3,5,6-tetrahydrobenzo[b][1,5]diazocin-4(1H)-one]	1 (1: 90-110% of control)
O=C1CCN(CC(O)c2ccc(OC(F)F)cc2)c2ccc3c(c2CN1C1CC1)OCCO3 (stereo not drawn) [Compound 149, 11-cyclopropyl-7-(2-(4-(difluoromethoxy)phenyl)-2-hydroxyethyl)-2,3,8,9,11,12-hexahydro-[1,4]dioxino[2′,3′:3,4]benzo[1,2-b][1,5]diazocin-10(7H)-one]	3 (3: 120-140% of control)
